In patent publication US6448255B1, “Imidazo-isoquinolin-5-one derivatives, pyrimido-isoquinolin-6-one derivatives and imidazo-naphthyridin-5-one derivatives” (Wyeth, priority 2000, dated 2002):

Experiments:
[1] = test system: blood serum HDL cholesterol; test: determination of HDL cholesterol in serum of cholesterol/cholic acid-fed rats; type: in vivo, Male Sprague-Dawley rats; settings: Dose 100 mg/kg/day mixed in diet, 8 days; rats fed chow with 0.25% cholic acid and 1.0% cholesterol; serum HDL cholesterol by FPLC
Protocol: The ability of the compounds of this invention to increase blood serum HDL levels was established by the following standard experimental procedure for determination of HDL cholesterol:
Male Sprague-Dawley rats weighing 200-225 g were housed two per cage and fed Purina Rodent Chow Special Mix 5001-S supplemented with 0.25% cholic acid and 1.0% cholesterol and water ad libitum for 8 days. Each test substance was administered to a group of six rats fed the same diet with the test diet mixed in as 0.005-0.1% of the total diet. Body weight and food consumption were recorded prior to diet administration and at termination. Typical doses of the test substances were 5-100 mg/kg/day.
At termination, blood was collected from anesthetized rats and the serum was separated by centrifugation. Total serum cholesterol was assayed using the Sigma Diagnostics enzymatic kit for the determination of cholesterol, Procedure No. 352, modified for use with ninety-six well microtiter plates. After reconstitution with water the reagent contains 300 U/I cholesterol oxidase, 100 U/I cholesterol esterase, 1000 U/I horse radish peroxidase, 0.3 mmoles/l 4-aminoantipyrine and 30.0 mmoles/l p-hydroxybenzenesulfonate in a pH 6.5 buffer. In the reaction cholesterol was oxidized to produce hydrogen peroxide which was used to form a quinoneimine dye. The concentration of dye formed was measured spectrophotometrically by absorbency at 490 nm after incubation at 25° C. for 30 minutes. The concentration of cholesterol was determined for each serum sample relative to a commercial standard from Sigma.
HDL cholesterol concentrations in serum were determined by separation of lipoprotein classes by fast protein liquid chromatography (FPLC) by a modification of the method of Kieft et al., J. Lipid Res., 32 (1991) 859-866. 25 ul of serum was injected onto Superose 12 and Superose 6 (Pharmacia), in series, with a column buffer of 0.05 M Tris (2-amino-2-hydroxymethyl-1,3-propanediol) and 0.15 M sodium chloride at a flow rate of 0.5 ml/min. The eluted sample was mixed on line with Boehringer-Mannheim cholesterol reagent pumped at […]. The combined eluents were mixed and incubated on line through a knitted coil (Applied Biosciences) maintained at a temperature of 45 C. The eluent was monitored by measuring absorbence at 490 nm and gave a continuous absorbence signal proportional to the cholesterol concentration. The relative concentration of each lipoprotein class was calculated as the percent of total absorbence. HDL cholesterol concentration, in serum, was calculated as the percent of total cholesterol as determined by FPLC multiplied by the total serum cholesterol concentration.

SMILES | melting point [°C] | HDL Cholesterol Level Increase (%) [1] [%]
O=C1c2ccccc2C(O)(c2ccc(Cl)cc2)C2=NCCCN12 (stereo not drawn) [Example 8, 11-(4-Chlorophenyl)-11-hydroxy-2,3,4,11-tetrahydro-6H-pyrimido[1,2-b]isoquinolin-6-one] | 128 to 130 | –
O=C1c2ccccc2C(O)(c2ccc(Br)cc2)C2=NCCN12 (stereo not drawn) [Example 13, 10-(4-Bromophenyl)-10-hydroxy-2,10-dihydroimidazo[1,2-b]isoquinolin-5(3H)-one] | 212 to 215 | –
CC1(C)CN2C(=O)c3ccccc3C(O)(c3ccccc3)C2=N1 (stereo not drawn) [Example 1, 10-Hydroxy-2,2-dimethyl-10-phenyl-2,10-dihydroimidazo[1,2-b]isoquinolin-5(3H)-one] | 186 to 188 | 55
C[C@@H]1CN2C(=O)c3ccccc3[C@@](O)(c3ccc(F)cc3)C2=N1 [Example 5, (2R, 10S)-10-(4-Fluorophenyl)-10-hydroxy-2-methyl-2,10-dihydroimidazo[1,2-b]isoquinolin-5(3H)-one] | 229 to 232 | 105
O=C1c2ccccc2C(O)(c2ccc(Cl)cc2)C2=NCCN12 (stereo not drawn) [Example 11, 10-(4-Chlorophenyl)-10-hydroxy-2,10-dihydroimidazo[1,2-b]isoquinolin-5(3H)-one] | 235 to 237 | –
CC1(C)CN2C(=O)c3ncccc3C(O)(c3ccc(Cl)cc3)C2=N1 (stereo not drawn) [Example 7, 10-(4-Chlorophenyl)-10-hydroxy-2,2-dimethyl-2,10-dihydroimidazo[2,1-g][1,7]naphthyridin-5(3H)-one] | 257 to 260 | 49
CC1(C)CN2C(=O)c3ccccc3C(O)(c3ccc(F)cc3)C2=N1 (stereo not drawn) [Example 3, 10-(4-Fluorophenyl)-10-hydroxy-2,2-dimethyl-2,10-dihydroimidazo[1,2-b]isoquinolin-5(3H)-one] | 168 to 170 | 90
O=C1c2ccccc2C(O)(c2ccc(F)cc2)C2=NC3CCCCC3N12 (stereo not drawn) [Example 4, 6-(4-Fluorophenyl)-6-hydroxy-1,3,4,4a,6,12a-hexahydrobenzimidazo[1,2-b]isoquinolin-11(2H)-one] | 203 to 205 | 21
O=C1c2ccccc2C(O)(c2ccccc2)C2=NCCN12 (stereo not drawn) [Example 12, 10-Hydroxy-10-phenyl-2,10-dihydroimidazo[1,2-b]isoquinolin-5(3H)-one] | 263 to 265 | –
O=C1c2ccccc2C(O)(c2ccc(F)cc2)C2=NCCCN12 (stereo not drawn) [Example 2, 11-(4-Fluorophenyl)-11-hydroxy-2,3,4,11-tetrahydro-6H-pyrimido[1,2-b]isoquinolin-6-one] | 126 to 128 | 22
C[C@H]1CN2C(=O)c3ccccc3[C@@](O)(c3ccc(F)cc3)C2=N1 [Example 6, (2S,10S)-10-(4-Fluorophenyl)-10-hydroxy-2-methyl-2,10-dihydrolmidazo[1,2-b]isoquinolin-5(3H)-one] | – | 38
CC1(C)CN2C(=O)c3ccccc3C(O)(c3ccc(Cl)cc3)C2=N1 (stereo not drawn) [Example 10, 10-(4-Chlorophenyl)-10-hydroxy-2,2-dimethyl-2,10-dihydroimidazo[1,2-b]isoquinolin-5(3H)-one] | 181 to 183 | –
